A short description of data set [1]: Selectivity index, ratio of CC50 for human MT4 cells to EC50 for HIV1 3B infected in human MT4 cells. The data set is classed as toxicity, cell-based. As to conditions: MT4 cells (uninfected for CC50; HIV-1 3B infected for EC50).
Data set [2] in a line: Cytotoxicity against human MT4 cells by MTT assay. The data set is classed as cell-based.
Data set [3] deals with Human immunodeficiency virus 1. Briefly: Antiviral activity against HIV1 3B infected in human MT4 cells assessed as inhibition of viral replication by MTT assay. It counts as functional, organism-based. The note with it: Human immunodeficiency virus 1, 3B.
Data set [4] relates to Human immunodeficiency virus 1. In words: Inhibition of LEDGF/p75-HIV1 integrase interaction at 100 uM by Alphascreen assay.

On to `CCCC(C(=O)O)c1c(C)nc2ccc(Cl)cc2c1-c1ccccc1` (stereo not drawn), for which, in data set [1], the selectivity ratio is 25. In data set [2], this compound came in with a CC50 of 67.3 µM. Also, the EC50 in data set [3] was 2.35 µM.

On to `C=CCC(C(=O)O)c1c(-c2ccccc2)c2cc(Cl)ccc2[nH]c1=O` (stereo not drawn), for which the selectivity ratio in data set [1] is 6. Moreover, the midpoint of cytotoxicity in data set [2], the CC50, lay at 67.3 µM. In addition, the EC50 in data set [3] was 12.4 µM.

Turning to `CCCC(C(=O)O)c1cnc2sc(C)cc2c1-c1ccc(C)cc1` (stereo not drawn), in data set [1], the selectivity ratio is 95. The compound further yielded a CC50 in data set [2] of 72.2 µM. Further, the EC50 in data set [3] came out at 0.76 µM.

Compound `Cn1c(=O)c(/C(=N/c2ccccc2)c2nnn[nH]2)c(O)c2ccccc21` gave an inhibition in data set [4] of 36%.

`CCCC(C(=O)O)c1c(-c2ccccc2)c2cc(Cl)ccc2n(CCC)c1=O` (stereo not drawn): the selectivity ratio in data set [1] stood at 6. The compound also came in with a CC50 in data set [2] of 64.4 µM. In addition, the EC50 in data set [3] worked out at 10.8 µM.

In the case of `Cc1ccc(-c2c(C(OC(C)(C)C)C(=O)O)cnc3sc(C)cc23)cc1` (stereo not drawn), the selectivity ratio in data set [1] was determined as 1390. In data set [2], this compound yielded a CC50 of 96 µM.

With `O=C(O)Cc1c(-c2ccccc2)c2cc(Cl)ccc2[nH]c1=O`, the selectivity ratio in data set [1] is greater than 3. In data set [2], this compound had a cytotoxic concentration (CC50) greater than 150 µM. Besides, in data set [3], the EC50 was 41.9 µM.

Broadly, the CC50 is the concentration that lowers cell viability or growth by half. Low readings indicate harm at low concentration, high ones better tolerance by the cells. For orientation: EC50 means the midpoint of the concentration-response curve. A word on the inhibition: it is the change of the read-out against control, counted positive when it falls. High values mean strong suppression, low ones little suppression.
